Measured values: the supplement of paper PMC10307832

How the values were obtained:
Assay in all cases: relative viability (nuclei count vs DMSO), 5 days (fraction); higher = more cells survive
HCC-15 = system: HCC-15
Method in brief: (§1)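 Values are medians from duplicate plates. Each reflects relative viability, defined as the nuclei count of treated wells over that of vehicle wells. Lung cancer cell lines in 1536-well plates were pin-tool dosed one day after seeding with one drug alone or with a fixed anchor-drug dose plus five library-drug doses (not always all listed) in √10 steps, then fixed, stained and imaged at 4× after 5 days.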

NCI-H1915 = system: NCI-H1915
Method in brief: as §1

NCI-H2126 = system: NCI-H2126
Method in brief: as §1

EMC-BAC-2 = system: EMC-BAC-2
Method in brief: as §1

EKVX = system: EKVX
Method in brief: as §1

HCC-827 = system: HCC-827
Method in brief: as §1

LU99A = system: LU99A
Method in brief: as §1

SK-LU-1 = system: SK-LU-1
Method in brief: as §1

LCLC-97TM1 = system: LCLC-97TM1
Method in brief: as §1

NCI-H661 = system: NCI-H661
Method in brief: as §1

ChaGo-K-1 = system: ChaGo-K-1
Method in brief: as §1

H3255 = system: H3255
Method in brief: as §1

NCI-H441 = system: NCI-H441
Method in brief: as §1

NCI-H1792 = system: NCI-H1792
Method in brief: as §1

NCI-H460 = system: NCI-H460
Method in brief: as §1

LC-2-ad = system: LC-2-ad
Method in brief: as §1

NCI-H23 = system: NCI-H23
Method in brief: as §1

NCI-H1437 = system: NCI-H1437
Method in brief: as §1

PC-3 [JPC-3] = system: PC-3 [JPC-3]
Method in brief: as §1

HARA = system: HARA
Method in brief: as §1

NCI-H322M = system: NCI-H322M
Method in brief: as §1

Which relative viability (HCC-15; first compound 5 µM) does the source give for `O=C(O)CCCCC(CCSCc1ccccc1)SCc1ccccc1` (stereo not given) [CPI-613] + CC(C)C[C@H](NC(=O)[C@H](Cc1ccccc1)NC(=O)c1cnccn1)B(O)O [Bortezomib] (partner 0.002 µM) here?
The relative viability was 0.938.

What about the relative viability (HCC-15; first compound 15.81 µM) of the same compound?
The relative viability was 0.932.

And the relative viability (HCC-15; first compound 50 µM)?
Its relative viability is 0.905.

And the relative viability (HCC-15; first compound 158.11 µM)?
The relative viability was 0.757.

And the relative viability (HCC-15; first compound 500 µM)?
The relative viability was 0.394.

What about the relative viability (NCI-H1915; first compound 5 µM) of the same compound?
Its relative viability is 0.992.

And the relative viability (NCI-H1915; first compound 15.81 µM)?
Its relative viability is 0.99.

And the relative viability (NCI-H1915; first compound 50 µM)?
The relative viability was 0.946.

What about the relative viability (NCI-H1915; first compound 158.11 µM) of the same compound?
The relative viability was 0.799.

What about the relative viability (NCI-H1915; first compound 500 µM) of the same compound?
Its relative viability is 0.746.

What about the relative viability (NCI-H2126; first compound 5 µM) of the same compound?
Its relative viability is 1.11.

What about the relative viability (NCI-H2126; first compound 15.81 µM) of the same compound?
Its relative viability is 1.06.

What about the relative viability (NCI-H2126; first compound 50 µM) of the same compound?
The relative viability was 1.04.

And the relative viability (NCI-H2126; first compound 158.11 µM)?
The relative viability was 0.669.

And the relative viability (NCI-H2126; first compound 500 µM)?
Its relative viability is 0.761.

And the relative viability (EMC-BAC-2; first compound 5 µM)?
The relative viability was 1.06.

And the relative viability (EMC-BAC-2; first compound 15.81 µM)?
The relative viability was 0.993.

What about the relative viability (EMC-BAC-2; first compound 50 µM) of the same compound?
Its relative viability is 1.07.

And the relative viability (EMC-BAC-2; first compound 158.11 µM)?
Its relative viability is 0.936.

What about the relative viability (EMC-BAC-2; first compound 500 µM) of the same compound?
Its relative viability is 0.4.

What about the relative viability (EKVX; first compound 5 µM) of the same compound?
The relative viability was 0.864.

What about the relative viability (EKVX; first compound 15.81 µM) of the same compound?
Its relative viability is 0.957.

And the relative viability (EKVX; first compound 50 µM)?
Its relative viability is 1.05.

What about the relative viability (EKVX; first compound 158.11 µM) of the same compound?
The relative viability was 0.548.

What about the relative viability (EKVX; first compound 500 µM) of the same compound?
The relative viability was 1.04.

What about the relative viability (HCC-827; first compound 5 µM) of the same compound?
Its relative viability is 0.923.

And the relative viability (HCC-827; first compound 15.81 µM)?
The relative viability was 1.02.

And the relative viability (HCC-827; first compound 50 µM)?
The relative viability was 0.926.

What about the relative viability (HCC-827; first compound 158.11 µM) of the same compound?
Its relative viability is 0.916.

What about the relative viability (HCC-827; first compound 500 µM) of the same compound?
Its relative viability is 0.786.

What about the relative viability (LU99A; first compound 5 µM) of the same compound?
Its relative viability is 1.04.

What about the relative viability (LU99A; first compound 15.81 µM) of the same compound?
Its relative viability is 1.04.

What about the relative viability (LU99A; first compound 50 µM) of the same compound?
The relative viability was 0.961.

What about the relative viability (LU99A; first compound 158.11 µM) of the same compound?
Its relative viability is 0.815.

What about the relative viability (LU99A; first compound 500 µM) of the same compound?
Its relative viability is 0.08.

And the relative viability (SK-LU-1; first compound 5 µM)?
Its relative viability is 1.31.

And the relative viability (SK-LU-1; first compound 15.81 µM)?
Its relative viability is 0.781.

What about the relative viability (SK-LU-1; first compound 50 µM) of the same compound?
The relative viability was 1.32.

What about the relative viability (SK-LU-1; first compound 158.11 µM) of the same compound?
Its relative viability is 1.02.

What about the relative viability (SK-LU-1; first compound 500 µM) of the same compound?
Its relative viability is 0.935.

What about the relative viability (LCLC-97TM1; first compound 5 µM) of the same compound?
The relative viability was 0.728.

And the relative viability (LCLC-97TM1; first compound 15.81 µM)?
Its relative viability is 0.276.

What about the relative viability (LCLC-97TM1; first compound 50 µM) of the same compound?
The relative viability was 0.583.

And the relative viability (LCLC-97TM1; first compound 158.11 µM)?
Its relative viability is 0.532.

And the relative viability (LCLC-97TM1; first compound 500 µM)?
Its relative viability is 0.819.

What about the relative viability (NCI-H661; first compound 5 µM) of the same compound?
Its relative viability is 0.749.

What about the relative viability (NCI-H661; first compound 15.81 µM) of the same compound?
Its relative viability is 0.66.

And the relative viability (NCI-H661; first compound 50 µM)?
Its relative viability is 0.85.

And the relative viability (NCI-H661; first compound 158.11 µM)?
The relative viability was 0.709.

What about the relative viability (NCI-H661; first compound 500 µM) of the same compound?
Its relative viability is 0.709.

What about the relative viability (ChaGo-K-1; first compound 5 µM) of the same compound?
The relative viability was 0.836.

What about the relative viability (ChaGo-K-1; first compound 15.81 µM) of the same compound?
The relative viability was 0.855.

What about the relative viability (ChaGo-K-1; first compound 50 µM) of the same compound?
The relative viability was 0.804.

What about the relative viability (ChaGo-K-1; first compound 158.11 µM) of the same compound?
Its relative viability is 0.671.

What about the relative viability (ChaGo-K-1; first compound 500 µM) of the same compound?
The relative viability was 0.554.

And the relative viability (H3255; first compound 5 µM)?
The relative viability was 0.815.

What about the relative viability (H3255; first compound 15.81 µM) of the same compound?
The relative viability was 0.719.

What about the relative viability (H3255; first compound 50 µM) of the same compound?
Its relative viability is 0.781.

And the relative viability (H3255; first compound 158.11 µM)?
Its relative viability is 0.734.

What about the relative viability (H3255; first compound 500 µM) of the same compound?
The relative viability was 0.736.

And the relative viability (NCI-H441; first compound 5 µM)?
The relative viability was 0.447.

And the relative viability (NCI-H441; first compound 15.81 µM)?
The relative viability was 0.44.

And the relative viability (NCI-H441; first compound 50 µM)?
Its relative viability is 0.537.

What about the relative viability (NCI-H441; first compound 158.11 µM) of the same compound?
Its relative viability is 0.129.

And the relative viability (NCI-H441; first compound 500 µM)?
The relative viability was 0.005.

What about the relative viability (NCI-H1792; first compound 5 µM) of the same compound?
The relative viability was 0.889.

And the relative viability (NCI-H1792; first compound 15.81 µM)?
The relative viability was 0.886.

And the relative viability (NCI-H1792; first compound 50 µM)?
Its relative viability is 0.996.

What about the relative viability (NCI-H1792; first compound 158.11 µM) of the same compound?
The relative viability was 0.836.

What about the relative viability (NCI-H1792; first compound 500 µM) of the same compound?
Its relative viability is 0.893.

And the relative viability (NCI-H460; first compound 5 µM)?
Its relative viability is 1.07.

What about the relative viability (NCI-H460; first compound 15.81 µM) of the same compound?
The relative viability was 1.12.

And the relative viability (NCI-H460; first compound 50 µM)?
Its relative viability is 0.895.

And the relative viability (NCI-H460; first compound 158.11 µM)?
Its relative viability is 0.445.

And the relative viability (NCI-H460; first compound 500 µM)?
The relative viability was 0.0063.

What about the relative viability (LC-2-ad; first compound 5 µM) of the same compound?
The relative viability was 0.621.

And the relative viability (LC-2-ad; first compound 15.81 µM)?
The relative viability was 0.932.

And the relative viability (LC-2-ad; first compound 50 µM)?
The relative viability was 0.979.

What about the relative viability (LC-2-ad; first compound 158.11 µM) of the same compound?
The relative viability was 0.259.

And the relative viability (LC-2-ad; first compound 500 µM)?
Its relative viability is 0.0023.

What about the relative viability (NCI-H23; first compound 5 µM) of the same compound?
Its relative viability is 0.958.

And the relative viability (NCI-H23; first compound 15.81 µM)?
Its relative viability is 1.1.

What about the relative viability (NCI-H23; first compound 50 µM) of the same compound?
The relative viability was 0.895.

What about the relative viability (NCI-H23; first compound 158.11 µM) of the same compound?
Its relative viability is 0.175.

What about the relative viability (NCI-H23; first compound 500 µM) of the same compound?
The relative viability was 0.0214.

And the relative viability (NCI-H1437; first compound 5 µM)?
Its relative viability is 0.479.

And the relative viability (NCI-H1437; first compound 15.81 µM)?
The relative viability was 0.397.

And the relative viability (NCI-H1437; first compound 50 µM)?
The relative viability was 0.493.

And the relative viability (NCI-H1437; first compound 158.11 µM)?
Its relative viability is 0.115.

And the relative viability (NCI-H1437; first compound 500 µM)?
The relative viability was 0.0227.

What about the relative viability (PC-3 [JPC-3]; first compound 5 µM) of the same compound?
Its relative viability is 0.83.

What about the relative viability (PC-3 [JPC-3]; first compound 15.81 µM) of the same compound?
Its relative viability is 0.695.

And the relative viability (PC-3 [JPC-3]; first compound 50 µM)?
The relative viability was 0.755.

What about the relative viability (PC-3 [JPC-3]; first compound 158.11 µM) of the same compound?
Its relative viability is 0.451.

What about the relative viability (PC-3 [JPC-3]; first compound 500 µM) of the same compound?
The relative viability was 0.452.

What about the relative viability (HARA; first compound 5 µM) of the same compound?
Its relative viability is 1.02.

And the relative viability (HARA; first compound 15.81 µM)?
The relative viability was 1.09.

What about the relative viability (HARA; first compound 50 µM) of the same compound?
The relative viability was 1.19.

What about the relative viability (HARA; first compound 158.11 µM) of the same compound?
The relative viability was 0.716.

And the relative viability (HARA; first compound 500 µM)?
The relative viability was 0.114.

What about the relative viability (NCI-H322M; first compound 5 µM) of the same compound?
Its relative viability is 1.19.

And the relative viability (NCI-H322M; first compound 15.81 µM)?
The relative viability was 1.2.

What about the relative viability (NCI-H322M; first compound 50 µM) of the same compound?
The relative viability was 1.27.

What about the relative viability (NCI-H322M; first compound 158.11 µM) of the same compound?
The relative viability was 1.31.

What about the relative viability (NCI-H322M; first compound 500 µM) of the same compound?
The relative viability was 0.908.
